Measurements published in patent US20050064382A1, “Method of prevention of lysosomal leakage in eukaryotic cells by using 6-methyluracil based water-soluble compounds and method of producing thereof” (priority 2002, published 2005).

Legend:
mice = assay: Toxicity LD50; assay type: in vivo
Shelf life = assay type: physicochemical; conditions: ambient temperatures
[1] = test system: skeletal (rear leg) muscle homogenates; assay: Proteolytic index of muscle homogenates (autoproteolysis, Ninhidrin); assay type: biochemical, rat
Method: In-vitro tests were performed on the skeletal (rear leg) muscles of 17 white laboratory rats. Preliminary research efforts determined 1) the preparation method for muscle homogenates, 2) estimation of level of the proteolytic activity by measuring for the concentration of free amino acids, a result of protein cleavage, and 3) the optimal time of authoproteolysis.
The preparation of muscle homogenates. Efforts were made to disassemble the muscle tissue gently, without disruption of the lysosomes, though with sufficient strength to ensure a homogeneous suspension of muscle cells in physiological solution (PBS). Potter's homogenator was used with a glass barrel and a Teflon pestle. Determination of the optimal treatment was based on experimental data and the activity of the proteases during the incubation of the homogenates at 37° C. If lysosomes were damaged during preparation of the homogenates, then there was no increase in concentration of free amino acids during incubation. Undamaged lysosomes in the homogenate would continue their proteolytic activity during incubation. For the best preparation of the homogenate, the muscles were separated from the connecting tissue, weighed and cut up with scissors in a Petri dish for 10 minutes. […]
After the incubation of samples, the protein concentration was estimated by the standard Bio-Rad method. To estimate proteolytic activity based on the concentration of free amino acids found in the sample, three methods were tried: 1) absorbance at 280 nm, 2) concentration of amino acid tyrosine by estimation with Folin reagent, and 3) concentration of end amino groups with Ninhidrin reagent. Only method 3 provided accurate results, so the proteolytic index was measured based on the Ninhidrin reagent. […] Samples were boiled in a water bath for 10 minutes, chilled and the absorbance at 560 nm was measured. […] Concentrations of free amino acids and protein in mg/ml could therefore be determined for both cases. The ratio of free amino acids per proteins in the sample was calculated as the proteolytic index. […]

THP-1 cells = assay: DMSO shock of THP-1 cells, percentage of dead cells; assay type: cell-based, human
Method: Cells were incubated in the presence of 10% DMSO at 37° C. for 90 minutes (tryptan-blue test).

[2] = test system: Human umbilical cord vein endothelial cells (HUCVEC); assay: HUCVEC Assay 1: enzymatic and mechanical damage; assay type: cell-based; conditions: after 7 days, without change of medium
Method: Glucural was also tested on two primer cell cultures for protection against cell death in sub-optimal conditions.
Human umbilical cord vein endothelial cells (HUCVEC) were isolated from freshly obtained human umbilical cords in accordance with known methods. HUCVEC were grown in multi-well plates. After saturation of the wells, the assays were initiated. Four wells were used for each experimental group. To cause “mechanical” damage, a higher (2-2½ times) centrifugal speed was used to pick up cells after trypsin treatment. To cause enzymatic damage, full-strength trypsin solution was used instead of the recommended diluted concentration. All assays were started from the last change of medium in wells with saturated cell culture (well bottoms were covered completely by cells). Results were estimated from the percentage of the bottom covered by cells on the last day of the assay.
Assay 1. Enzymatic and mechanical damage to cells: Growth after 7 days, without change of medium.

[3] = standard tests by Dr. Kirk Sperber, unpublished data; cited from earlier work
Saccaramices Cerevisiae = assay: Viability of lyophilized yeast; assay type: cell-based; conditions: added prior to lyophilization
Method: The lyophilization of yeast is a very common technique used in different fields of industry, biotechnology and research. The viability of lyophilized yeast species and strains can vary greatly. The viability of commercial baking yeast after lyophilization is high (50-80%). But other strains of yeast used in industry and research, can have viability as low as […]. […] Glucural was tested using the strain of yeast called Saccaramices Cerevisiae, a strain with a very low level of viability after lyophilization. By increasing the viability of lyophilized yeast inoculums, the amount of yeast required to make such inoculums may be lowered.
The standard method of lyophilization was used. […] The suspensions were aliquoted and lyophilized at standard conditions.
To assay the vitality of lyophilized yeast, two approaches were used:
The lyophilized yeast from an ampoule was re-suspended in 1 ml of regular growing medium and diluted by 10, 100, and 1,000 times. The suspensions of yeast were plated on the regular YPD agarose medium by 20 mkl per plate. After growing the colonies for 48 hours at 28° C., the number of colonies was counted.
This test included growing lyophilized yeast in 10 ml of growth medium for 24 hours, before plating on the agarose plates as described above.
The viability of the yeast strain tested increased by a factor of between 50 to 100 compared to the control group.

complex of 2,4-dihydroxy-6-methylpyrimidine with N-methyl-D-glucamine [Glucural]
LD50 equivalent for a 50-kg person (mice; extrapolated from mice): 100 g
LD50 (mice; mice): about 2 g/kg
shelf life (Shelf life): more than 10 years
decrease of proteolytic activity in muscles ([1]; Glucural 50 mkg/ml (Group 4)): 36%
decrease of proteolytic activity in muscles ([1]; Glucural 100 mkg/ml (Group 5)): 51%
reduction of autoproteolysis ([1]; Glucural less than 50 mkg/ml): not sufficient to reduce autoproteolysis
percentage of dead THP-1 cells (THP-1 cells; Control + Glucural 25 mkg/ml, assay 1): 3.9 ± 0.7%
percentage of dead THP-1 cells (THP-1 cells; Control + Glucural 25 mkg/ml, assay 2): 5.8 ± 3.1%
percentage of dead THP-1 cells (THP-1 cells; Control + Glucural 25 mkg/ml, assay 4): 3.0 ± 1.0%
percentage of dead THP-1 cells (THP-1 cells; DMSO shock (10% DMSO, 37° C., 90 minutes) + Glucural 25 mkg/ml, assay 1): 4.1 ± 1.6%
percentage of dead THP-1 cells (THP-1 cells; DMSO shock (10% DMSO, 37° C., 90 minutes) + Glucural 25 mkg/ml, assay 2): 7.7 ± 3.4%
percentage of dead THP-1 cells (THP-1 cells; DMSO shock (10% DMSO, 37° C., 90 minutes) + Glucural 25 mkg/ml, assay 3): 4.6 ± 2.2%
percentage of dead THP-1 cells (THP-1 cells; DMSO shock (10% DMSO, 37° C., 90 minutes) + Glucural 25 mkg/ml, assay 4): 5.0 ± 2.3%
Percent of well-bottom covered by cells ([2]; Glucural 40 mkg/ml): 2-5%
Percent of well-bottom covered by cells ([2]; Glucural 400 mkg/ml): 70-80%
anti-inflammatory action compared with thalidomide [3]: equal anti-inflammatory action as thalidomide
optimal dose to protect yeast cells (Saccaramices Cerevisiae): 25 mkg/ml
